Where a name gives a salt, the structure may show the parent alone. Read-outs that look alike come from different tables or passages of the source.
System: hepatocytes isolated from Wistar rat liver
Test: Test of inhibition of hepatic production of glucose (isolated hepatocytes, 3 h or 20 h incubation)
Format: cell-based
Settings: for activity at 50 µM / activity at 100 µM: Rattus norvegicus, Hepatocyte, hepatic glucose production, rat hepatocytes; for activity at 50 µM: compound at 50 μM, read-out: HGP % of ctrl @ 50 μM; for activity at 100 µM: compound at 100 μM, read-out: HGP % of ctrl @ 100 μM; for inhibition of hepatic production of glucose: with two doses
Description: The hepatocytes are isolated from Wistar rat liver having fasted for 24 h after perfusion of collagenase in the portal vein. The freshly isolated hepatocytes are sown in 6-well plates coated with collagen and containing an adhesion medium (Williams Medium). After adhesion, the medium is replaced with RPMI 1640 medium without any glucose, containing hydrocortisone (7.10^−5M) for a duration from 16 to 18 h. The next day, the glucose hepatic production test is conducted in a Krebs medium for 3 h. The basal conditions are cells incubated with only Krebs, the stimulated conditions are the cells placed in Krebs+lactate+pyruvate, the produced conditions are the cells exposed to chemical compounds in a Krebs/lactate/pyruvate medium. In the case when the compounds are dissolved in DMSO, all the conditions of the tests are met in the presence of a final concentration of 0.1% DMSO. The positive control of the test is the mercaptopicolinate known for its inhibitory action on hepatic production of glucose via the phosphoenolpyruvate carboxykinase. For short term treatments, the compounds are incubated for 3 h. For long term treatments, the compounds are incubated for 20 h at the moment when the hepatocytes are cultivated in RPMI and then added during the hepatic production test for 3 h. At the end of the 3 hours of incubation, the supernatant is recovered for measurement of glucose with a colorimetric method using glucose oxidase. The cells are lysed with a 0.1% NaOH aqueous solution in order to measure the amount of protein with the Lowry method. The results are expressed in mmols of glucose per mg of protein.

With `COc1ccc(C(=O)c2cc(CC(=O)O)c(-c3ccc(Cl)cc3)s2)cc1` [compound 60, 2-(2-(4-chlorophenyl)-5-(4-methoxybenzoyl)thiophen-3-yl) acetic acid] the activity at 50 µM (3 h, 3 h incubation) was 74% and the activity at 100 µM (3 h, 3 h incubation) was 53%.

With `COc1ccc(-c2sc(C(=O)C3CCCCC3)cc2CC(=O)O)cc1` [compound 46, 2-(5-(cyclohexanecarbonyl)-2-(4-methoxyphenyl)thiophen-3-yl)acetic acid] the activity at 50 µM (3 h, 3 h incubation) was 74% and the activity at 100 µM (3 h, 3 h incubation) was 55%.

For `COc1ccc(-c2sc(C(=O)c3ccccc3OC)cc2CC(=O)O)cc1` [compound 69, 2-(5-(2-methoxybenzoyl)-2-(4-methoxyphenyl)thiophen-3-yl)acetic acid], the activity at 50 µM (3 h, 3 h incubation) was 86% and the activity at 100 µM (3 h, 3 h incubation) was 60%.

In the case of `COc1ccc(C(=O)c2cc(CC(=O)NO)c(-c3ccc(Cl)cc3)s2)cc1` [compound 100, 2-(2-(4-chlorophenyl)-5-(4-methoxybenzoyl)thiophen-3-yl)-N-hydroxyacetamide], the “inhibition of hepatic production of glucose” value (“inhibition” for short) (20 h incubation) is reported as “strongest inhibitions”, the activity at 50 µM (20 h, 20 h incubation) is reported as 43% and the activity at 100 µM (20 h, 20 h incubation) is reported as 20%.

Work on `COc1ccc(-c2sc(C(=O)CCc3ccccc3)cc2CC(=O)O)cc1` [compound 80, 2-(2-(4-methoxyphenyl)-5-(3-phenylpropanoyl)thiophen-3-yl)ace acetic acid] yielded an activity at 50 µM (3 h, 3 h incubation) of 83% and an activity at 100 µM (3 h, 3 h incubation) of 67%.

With `COc1cc(Cl)ccc1C(=O)c1cc(CC(=O)O)c(-c2ccc(Cl)cc2)s1` [compound 156, 2-[5-(4-chloro-2-methoxy-benzoyl)-2-(4-chlorophenyl)-3-thienyl]acetic acid] the “inhibition” value (3 h incubation) was “strongest inhibitions”, the activity at 50 µM (3 h, 3 h incubation) was 21% and the activity at 100 µM (3 h, 3 h incubation) was 7%.

Compound `COC(=O)Cc1cc(C(=O)c2cccc(Cl)c2)sc1-c1ccccc1` [compound 2, methyl 2-(5-(3-chlorobenzoyl)-2-phenylthiophen-3-yl)acetate] has an activity at 50 µM (3 h, 3 h incubation) of 83% and an activity at 100 µM (3 h, 3 h incubation) of 62%.

Work on `O=C(O)Cc1cc(C(=O)c2ccc(Cl)c(Cl)c2)sc1-c1ccc(Cl)cc1` [compound 57, 2-(2-(4-chlorophenyl)-5-(3,4-dichlorobenzoyl)thiophen-3-yl)acetic acid] yielded an activity at 50 µM (3 h, 3 h incubation) of 77% and an activity at 100 µM (3 h, 3 h incubation) of 51%.

`O=C(O)Cc1cc(C(=O)c2cccc(Cl)c2)sc1-c1ccccc1` [compound 49, 2-(5-(3-chlorobenzoyl)-2-phenyl-thiophen-3-yl)acetic acid] was tested, and the “inhibition” value (3 h incubation) was “strongest inhibitions”, the activity at 50 µM (3 h, 3 h incubation) was 57% and the activity at 100 µM (3 h, 3 h incubation) was 38%.

In the case of `CON=C(c1ccc(OC)cc1)c1cc(CC(=O)O)c(-c2ccc(Cl)cc2)s1` [compound 110, 2-(2-(4-chlorophenyl)-5-((methoxyimino)(4-methoxyphenyl)methyl)thiophen-3-yl)acetic acid], the activity at 50 µM (3 h, 3 h incubation) is reported as 72% and the activity at 100 µM (3 h, 3 h incubation) is reported as 33%.

`COc1ccc(C(=O)c2cc(CC(=O)O)c(-c3ccccc3)s2)cc1` [compound 51, 2-(5-(4-methoxybenzoyl)-2-phenylthiophen-3-yl)acetic acid] gave an activity at 50 µM (3 h, 3 h incubation) of 90% and an activity at 100 µM (3 h, 3 h incubation) of 54%.

Compound `CCOC(=O)Cc1cc(C(=O)NNC(=O)c2cccc(OC)c2)sc1-c1ccc(Cl)cc1` [compound 178, ethyl 2-[2-(4-chlorophenyl)-5-[[(3-methoxybenzoyl)-amino]carbamoyl]-3-thienyl]acetate] has an activity at 50 µM (3 h, 3 h incubation) of 92% and an activity at 100 µM (3 h, 3 h incubation) of 72%.

`COc1cccc(NC(=O)c2cc(CC(=O)OC(C)C)c(-c3ccc(Cl)cc3)s2)c1` [compound 115, isopropyl 2-(2-(4-chlorophenyl)-5-((3-methoxyphenyl)-carbamoyl)thiophen-3-yl)acetate] was tested, and the activity at 50 µM (3 h, 3 h incubation) was 66% and the activity at 100 µM (3 h, 3 h incubation) was 75%.

For `CCOC(=O)Cc1cc(C(=O)CCc2ccccc2)sc1-c1ccc(OC)cc1` [compound 38, ethyl 2-(2-(4-methoxyphenyl)-5-(3-phenylpropanoyl)thiophen-3-yl)acetate], the activity at 50 µM (3 h, 3 h incubation) was 74% and the activity at 100 µM (3 h, 3 h incubation) was 70%.

For `O=C(O)Cc1cc(C(=O)c2ccco2)sc1-c1ccc(Cl)cc1F` [compound 144, 2-(2-(4-chloro-2-fluorophenyl)-5-(furan-2-carbonyl)thiophen-3-yl)acetic acid], the activity at 50 µM (3 h, 3 h incubation) was 74% and the activity at 100 µM (3 h, 3 h incubation) was 52%.

Compound `COc1ccc(C(=O)c2cc(CC(=O)O)c(-c3ccc(Cl)c(Cl)c3)s2)cc1` [compound 81, 2-(2-(3,4-dichlorophenyl)-5-(4-methoxybenzoyl)thiophen-3-yl) acetic acid] has an activity at 50 µM (3 h, 3 h incubation) of 106% and an activity at 100 µM (3 h, 3 h incubation) of 54%.

`O=C(O)Cc1cc(C(=O)c2ccco2)sc1-c1ccccc1` [compound 48, 2-(5-(furan-2-carbonyl)-2-phenyl-thiophen-3-yl)acetic acid] was tested, and the activity at 50 µM (3 h, 3 h incubation) was 91% and the activity at 100 µM (3 h, 3 h incubation) was 73%.

In the case of `COC(=O)Cc1cc(C(=O)c2ccc(OC)cc2)sc1-c1ccccc1` [compound 5, methyl 2-(5-(4-methoxybenzoyl)-2-phenylthiophen-3-yl)acetate], the activity at 50 µM (3 h, 3 h incubation) is reported as 68% and the activity at 100 µM (3 h, 3 h incubation) is reported as 50%.

For `COc1ccc(C(=O)c2cc(CC(N)=O)c(-c3ccc(Cl)cc3)s2)cc1` [compound 86, 2-(2-(4-chlorophenyl)-5-(4-methoxybenzoyl)thiophen-3-yl)acetamide], the activity at 50 µM (3 h, 3 h incubation) was 77% and the activity at 100 µM (3 h, 3 h incubation) was 72%.

`O=C(O)Cc1cc(C(=O)C2CCCCC2)sc1-c1ccc(Cl)cc1` [compound 61, 2-(2-(4-chlorophenyl)-5-(cyclohexanecarbonyl)thiophen-3-yl)acetic acid] gave an activity at 50 µM (3 h, 3 h incubation) of 78% and an activity at 100 µM (3 h, 3 h incubation) of 66%.

For `CCOC(=O)Cc1cc(S(=O)(=O)c2ccc(OC)cc2)sc1-c1ccc(Cl)c(Cl)c1` [compound 174, ethyl 2-[2-(3,4-dichlorophenyl)-5-(4-methoxyphenyl)sulfonyl-3-thienyl]acetate], the activity at 50 µM (3 h, 3 h incubation) was 73% and the activity at 100 µM (3 h, 3 h incubation) was 77%.

`CCOC(=O)Cc1cc(C(=O)Cc2ccccc2)sc1-c1ccc(Cl)cc1` [compound 16, ethyl 2-(2-(4-chlorophenyl)-5-(2-phenylacetyl)thiophen-3-yl)acetate] showed an activity at 50 µM (3 h, 3 h incubation) of 69% and an activity at 100 µM (3 h, 3 h incubation) of 63%.

Compound `COC(=O)Cc1cc(C(=O)c2cccc(OC)c2)sc1-c1ccccc1` [compound 4, methyl 2-(5-(3-methoxybenzoyl)-2-phenylthiophen-3-yl)acetate] has an activity at 50 µM (3 h, 3 h incubation) of 77% and an activity at 100 µM (3 h, 3 h incubation) of 75%.

`O=C(O)Cc1cc(C(=O)c2ccccc2)sc1-c1ccc(Cl)cc1` [compound 154, 2-[5-benzoyl-2-(4-chlorophenyl)-3-thienyl]acetic acid] was tested, and the activity at 50 µM (3 h, 3 h incubation) was 81% and the activity at 100 µM (3 h, 3 h incubation) was 63%.

In the case of `CCON=C(c1ccc(Cl)c(Cl)c1)c1cc(CC(=O)O)c(-c2ccc(Cl)cc2)s1` [compound 167, 2-[2-(4-chlorophenyl)-5-[C-(3,4-dichlorophenyl)-N-ethoxy-carbonimidoyl]-3-thienyl]acetic acid], the “inhibition” value (3 h incubation) is reported as “strongest inhibitions”, the activity at 50 µM (3 h, 3 h incubation) is reported as 20% and the activity at 100 µM (3 h, 3 h incubation) is reported as 23%.

`O=C(O)Cc1cc(C(=O)Cc2ccc(F)cc2)sc1-c1ccccc1` [compound 54, 2-(5-(2-(4-fluorophenyl)acetyl)-2-phenylthiophen-3-yl)acetic acid] showed an activity at 50 µM (3 h, 3 h incubation) of 85% and an activity at 100 µM (3 h, 3 h incubation) of 74%.

`COc1cccc(C(=O)c2cc(CC(=O)O)c(-c3ccccc3)s2)c1` [compound 50, 2-(5-(3-methoxybenzoyl)-2-phenylthiophen-3-yl)acetic acid] was tested, and the activity at 50 µM (3 h, 3 h incubation) was 97% and the activity at 100 µM (3 h, 3 h incubation) was 75%.

In the case of `COc1ccc(C(=O)c2cc(CC(=O)NC(=N)N)c(-c3ccc(Cl)c(Cl)c3)s2)cc1` [compound 184, N-carbamimidoyl-2-[2-(3,4-dichlorophenyl)-5-(4-methoxybenzoyl)-3-thienyl]acetamide hydrochloride], the activity at 50 µM (3 h, 3 h incubation) is reported as 68% and the activity at 100 µM (3 h, 3 h incubation) is reported as 80%.

`CCOC(=O)Cc1cc(C(=O)c2cccc(F)c2)sc1-c1ccc(OC)cc1` [compound 26, ethyl 2-(5-(3-fluorobenzoyl)-2-(4-methoxyphenyl)thiophen-3-yl)acetate] gave an activity at 50 µM (3 h, 3 h incubation) of 86% and an activity at 100 µM (3 h, 3 h incubation) of 71%.

`COc1ccc(C(=O)c2cc(CC(=O)OC(C)C)c(-c3ccc(Cl)cc3)s2)cc1` [compound 43, isopropyl 2-(2-(4-chlorophenyl)-5-(4-methoxybenzoyl)thiophen-3-yl)acetate] was tested, and the activity at 50 µM (3 h, 3 h incubation) was 82% and the activity at 100 µM (3 h, 3 h incubation) was 73%.

In the case of `CCOC(=O)Cc1cc(C(=O)CCc2ccccc2)sc1-c1ccc(Cl)cc1` [compound 17, ethyl 2-(2-(4-chlorophenyl)-5-(3-phenylpropanoyl)thiophen-3-yl)acetate], the activity at 50 µM (3 h, 3 h incubation) is reported as 76% and the activity at 100 µM (3 h, 3 h incubation) is reported as 73%.

For `COc1ccc(C(=O)c2cc(C(C)C(=O)O)c(-c3ccc(Cl)cc3)s2)cc1` (centres unmarked) [compound 127, 2-(2-(4-chlorophenyl)-5-(4-methoxybenzoyl)thiophen-3-yl)propanoic acid], the “inhibition” value (3 h incubation) was “strongest inhibitions”, the activity at 50 µM (3 h, 3 h incubation) was 54% and the activity at 100 µM (3 h, 3 h incubation) was 23%.

`COC(=O)Cc1cc(C(=O)C2CCCCC2)sc1-c1ccccc1` [compound 6, methyl 2-(5-(cyclohexanecarbonyl)-2-phenylthiophen-3-yl)acetate] gave an activity at 50 µM (3 h, 3 h incubation) of 72% and an activity at 100 µM (3 h, 3 h incubation) of 55%.

— US9777015B2, “Useful thiophene derivatives in the treatment of diabetes” (METABRAIN RESEARCH, priority 2012, dated 2017)
